Here are results for three molecules from patent US20260001928A1 (CORTERIA PHARMACEUTICALS, priority 2022, published 2026).

*1 amine or outer side, *2 acyl side, *3 side chain or, on linkers, in order; H or OH if unused. Where a SMILES comes first, the peptide text is derived from it. Side-chain parts run from the residue outwards. [ ]: non-standard residue; d: D form. The star is where a group is joined. C18 diacid = O=C(O)CCCCCCCCCCCCCCCCC(=O)*; γGlu = O=C(O)[C@H](CCC(=O)[*:2])N[*:1]; X1 = O=C(CC1(N[*:1])CCOCC1)[*:2]; Api = NC1(C(=O)O)CCNCC1; AEEA = NCCOCCOCC(=O)O; Aib = CC(C)(N)C(=O)O

Data set [1] addresses T1, human CRF2a receptor (Homo sapiens, UniProt Q13324).
T1 construct: expressed in transfected cells; host or cells: TeloHEAC cells
T1 sequence (Q13324 1-411): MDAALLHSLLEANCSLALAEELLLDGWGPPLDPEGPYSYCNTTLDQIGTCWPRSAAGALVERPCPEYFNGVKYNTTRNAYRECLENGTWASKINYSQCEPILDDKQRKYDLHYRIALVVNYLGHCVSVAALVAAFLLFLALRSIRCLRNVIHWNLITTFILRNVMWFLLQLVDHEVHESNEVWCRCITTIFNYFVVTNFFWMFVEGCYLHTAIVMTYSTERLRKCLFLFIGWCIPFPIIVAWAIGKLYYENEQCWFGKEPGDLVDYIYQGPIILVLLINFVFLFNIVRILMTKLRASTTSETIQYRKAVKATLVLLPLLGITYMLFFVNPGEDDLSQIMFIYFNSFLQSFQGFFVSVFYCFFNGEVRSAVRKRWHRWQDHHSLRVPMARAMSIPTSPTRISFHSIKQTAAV
In words: Activity at human CRF2a receptor, cAMP functional assay in TeloHEAC cells. The following applies: TeloHEAC cells stably expressing human CRF2a receptor, relative to urocortin 2 (100 nM = 100%). The class given is cell-based. A digest of the protocol:
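TeloHEAC cells stably expressing human CRF2a (10000 cells/well, suspended in HBSS/20 mM HEPES with 2 mM IBMX) were exposed to compounds for 30 min at 37 °C. cAMP was read as the 665/620 nm fluorescence ratio after 1 h at room temperature. EC50 was derived relative to 100 nM urocortin 2, set as 100%.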

A short description of data set [2]: In vitro subcutaneous tissue supernatant (SCts) stability and metabolite identification, rat. The following applies: male, Sprague Dawley; rat subcutaneous tissue supernatant (SCts), 37° C, 2 h. The arrangement: remaining at 2 h: dose or concentration left out as unconfirmed. The class given is in vitro ADME.
The nature of data set [3]: Chemical stability in buffer (pH 7.4 / pH 4.5), % purity loss. The class given is physicochemical. The following applies: 40° C. vs 5° C., 14 or 28 days; for Buffer stability pH 7.4 % purity loss: 100 mM phosphate buffer pH 7.4; for Buffer stability pH 4.5 % purity loss: 100 mM acetate buffer pH 4.5. In outline:
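LC-UV gave % loss after 14 or 28 days of storage at 5 °C or 40 °C. Samples were diluted supernatants from compound incubated 1 h at room temperature at 10 mg/mL target, in 100 mM acetate pH 4.5 or 100 mM phosphate pH 7.4.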

Data set [4] is described as follows: Pharmacokinetics in male Sprague Dawley rats after subcutaneous administration. The class given is in vivo. The following applies: plasma, rat, SC, 0.05 mg/kg. The protocol: The pharmacokinetics of UCN-2 derivatives was studied in male Sprague Dawley rats after subcutaneous administration (SC) at 0.05, 0.1, 0.3 or 1 mg/kg. Peptides were formulated as a solution in 10 mM phosphate pH 7.4 buffer+glycerol 85% (2.3% v/v)). […] The supernatant (200 μL) was analyzed by LC-MSMS. Pharmacokinetic parameters were calculated using established non-compartmental methods. The area under the plasma concentration curve versus time (AUC) was determined using Watson LIMS (version 7.6), with linear trapezoidal interpolation in the ascending slope and logarithmic trapezoidal interpolation in the descending slope. The portion of the AUC from the last measurable concentration to infinity was estimated from the equation, Ct/kel, where Ct represents the last measurable concentration and kel is the elimination rate constant. The latter was determined from the concentration curve versus time by linear regression at the terminal phase of the semi-logarithmic plot.

In data set [5] the target is T2, CFR1R receptor (Homo sapiens, UniProt P34998).
T2 construct: host or cells: CHO-K1 (clone 2)
T2 sequence (P34998 24-415): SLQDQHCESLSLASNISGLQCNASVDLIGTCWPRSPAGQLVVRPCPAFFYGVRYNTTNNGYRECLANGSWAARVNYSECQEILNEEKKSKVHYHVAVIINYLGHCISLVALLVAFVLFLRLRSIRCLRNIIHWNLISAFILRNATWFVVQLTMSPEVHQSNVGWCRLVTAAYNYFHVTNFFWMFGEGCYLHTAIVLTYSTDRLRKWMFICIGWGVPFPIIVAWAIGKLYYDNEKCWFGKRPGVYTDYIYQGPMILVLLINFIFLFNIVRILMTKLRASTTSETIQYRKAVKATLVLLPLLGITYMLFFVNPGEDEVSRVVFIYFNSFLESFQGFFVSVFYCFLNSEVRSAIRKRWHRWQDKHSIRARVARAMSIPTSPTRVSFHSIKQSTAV
In words: Activity at anti-target CFR1R receptor, cAMP assay in CRF1R-overexpression CHO-K1 cells. In kind it is cell-based. Conditions: 100% = Sauvagine at 100 nM; for EC50: cAMP. In outline: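 The method mirrors that used with TeloHAEC cells. Here, thawed clone 2 cells seeded at 4000 cells/well are tested, and 100 nM Sauvagine sets the top of the activation scale.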

`CC[C@H](C)[C@H](NC(C)=O)C(=O)N[C@H](C(=O)N[C@@H](CC(C)C)C(=O)N[C@@H](CO)C(=O)N[C@@H](CC(C)C)C(=O)N[C@@H](CC(=O)O)C(=O)N[C@@H](C(=O)N1CCC[C@H]1C(=O)N[C@H](C(=O)N[C@@H](CCCCN)C(=O)N[C@@H](CC(C)C)C(=O)N[C@@H](CCCCNC(=O)CC[C@H](NC(=O)CCCCCCCCCCCCCCCCC(=O)O)C(=O)O)C(=O)N[C@@H](CCCCN)C(=O)N[C@H](C(=O)N[C@@H](CC(C)C)C(=O)N[C@@H](CC(C)C)C(=O)N[C@@H](CCC(=O)O)C(=O)N[C@@H](CCC(N)=O)C(=O)N[C@@H](CCC(=O)O)C(=O)N[C@@H](CCCCN)C(=O)N[C@@H](CCC(N)=O)C(=O)N[C@@H](CCCCN)C(=O)N[C@@H](CCCCN)C(=O)N[C@@H](CCC(N)=O)C(=O)N[C@@H](CCCNC(=N)N)C(=O)N[C@@H](CCC(=O)O)C(=O)N[C@@H](CCC(N)=O)C(=O)N[C@@H](C)C(=O)N[C@@H](CCC(=O)O)C(=O)N[C@H](C(=O)N[C@@H](CC(N)=O)C(=O)NC1(CC(=O)N[C@@H](CCC(N)=O)C(=O)N[C@H](C(=O)N[C@@H](CC(C)C)C(=O)N[C@@H](C)C(=O)N[C@@H](CCC(N)=O)C(=O)N[C@H](C(N)=O)C(C)C)[C@@H](C)CC)CCOCC1)[C@@H](C)O)[C@@H](C)CC)[C@@H](C)CC)C(C)C)C(C)C` [compound 199] (Ac-IVLSLD[dV]PIKLK([γGlu-C18 diacid])KILLEQEKQKKQREQAETN[X1]QILAQV-NH2) had a concentration giving a half-maximal response (EC50) in data set [1] of 160 pM. The share remaining at 2 h in data set [2] is 83%. Besides, in data set [3], the “Buffer stability pH 7.4 % purity loss” value is reported as 0/Not Tested %. Moreover, in data set [4], the AUC(0-t) stood at 1620 ng·h/mL, the Cmax amounted to 111 ng/mL, the time of peak concentration (Tmax) amounted to 6 h and the half-life was 10.2 h. In addition, in data set [5], the “Emax (% I)” value stood at 11 % I and the EC50 is greater than 250000 pM.
Molecule `CC[C@H](C)[C@H](NC(C)=O)C(=O)N[C@H](C(=O)N[C@@H](CC(C)C)C(=O)N[C@@H](CO)C(=O)N[C@@H](CC(C)C)C(=O)N[C@@H](CC(=O)O)C(=O)N[C@@H](C(=O)N1CCC[C@H]1C(=O)N[C@H](C(=O)N[C@@H](CCCCN)C(=O)N[C@@H](CC(C)C)C(=O)N[C@@H](CCCCNC(=O)CC[C@H](NC(=O)CCCCCCCCCCCCCCCCC(=O)O)C(=O)O)C(=O)N[C@@H](CCCCN)C(=O)N[C@H](C(=O)N[C@@H](CC(C)C)C(=O)N[C@@H](CC(C)C)C(=O)N[C@@H](CCC(=O)O)C(=O)N[C@@H](CCC(N)=O)C(=O)N[C@@H](CCC(=O)O)C(=O)N[C@@H](CCCCN)C(=O)N[C@@H](CCC(N)=O)C(=O)N[C@@H](CCCCN)C(=O)N[C@@H](C)C(=O)N[C@@H](CCC(N)=O)C(=O)N[C@@H](CCCNC(=N)N)C(=O)N[C@@H](CCC(=O)O)C(=O)N[C@@H](CCC(N)=O)C(=O)N[C@@H](C)C(=O)N[C@@H](CCC(=O)O)C(=O)N[C@H](C(=O)N[C@@H](CC(N)=O)C(=O)NC1(C(=O)N[C@@H](CCC(N)=O)C(=O)N[C@H](C(=O)N[C@@H](CC(C)C)C(=O)N[C@@H](C)C(=O)N[C@@H](CCC(N)=O)C(=O)N[C@H](C(N)=O)C(C)C)[C@@H](C)CC)CCNCC1)[C@@H](C)O)[C@@H](C)CC)[C@@H](C)CC)C(C)C)C(C)C` [compound 187] (Ac-IVLSLD[dV]PIKLK([γGlu-C18 diacid])KILLEQEKQKAQREQAETN[Api]QILAQV-NH2) came in with an EC50 in data set [1] of 260 pM. The share remaining at 2 h in data set [2] is 82%. In data set [3], the “Buffer stability pH 4.5 % purity loss” value is 0.0/0.0 ^ % and the “Buffer stability pH 7.4 % purity loss” value is 0.0/0.0 ^ %. In data set [4], the AUC(0-t) amounted to 2100 ng·h/mL, the Cmax worked out at 137 ng/mL, the Tmax is 7 h and the half-life is 9.7 h. The “Emax (% I)” value in data set [5] was 37 % I.
Take `CC[C@H](C)[C@H](NC(C)=O)C(=O)N[C@H](C(=O)N[C@@H](CC(C)C)C(=O)N[C@@H](CO)C(=O)N[C@@H](CC(C)C)C(=O)N[C@@H](CC(=O)O)C(=O)N[C@@H](C(=O)N1CCC[C@H]1C(=O)N[C@H](C(=O)N[C@@H](CCCCN)C(=O)N[C@@H](CC(C)C)C(=O)N[C@@H](CCCCNC(=O)COCCOCCNC(=O)COCCOCCNC(=O)CC[C@H](NC(=O)CCCCCCCCCCCCCCCCC(=O)O)C(=O)O)C(=O)N[C@@H](CCCCN)C(=O)N[C@H](C(=O)N[C@@H](CC(C)C)C(=O)N[C@@H](CC(C)C)C(=O)N[C@@H](CCC(=O)O)C(=O)N[C@@H](CCC(N)=O)C(=O)N[C@@H](CCC(=O)O)C(=O)N[C@@H](CCCCN)C(=O)N[C@@H](CCC(N)=O)C(=O)N[C@@H](CCCCN)C(=O)N[C@@H](CCCCN)C(=O)N[C@@H](CCC(N)=O)C(=O)N[C@@H](CCCNC(=N)N)C(=O)N[C@@H](CCC(=O)O)C(=O)N[C@@H](CCC(N)=O)C(=O)N[C@@H](C)C(=O)N[C@@H](CCC(=O)O)C(=O)N[C@H](C(=O)N[C@@H](CC(N)=O)C(=O)NC(C)(C)C(=O)N[C@@H](CCC(N)=O)C(=O)N[C@H](C(=O)N[C@@H](CC(C)C)C(=O)N[C@@H](C)C(=O)N[C@@H](CCC(N)=O)C(=O)N[C@H](C(N)=O)C(C)C)[C@@H](C)CC)[C@@H](C)O)[C@@H](C)CC)[C@@H](C)CC)C(C)C)C(C)C` [compound 98] (Ac-IVLSLD[dV]PIKLK([AEEA-AEEA-γGlu-C18 diacid])KILLEQEKQKKQREQAETN[Aib]QILAQV-NH2): the 50% effective concentration (EC50) in data set [1] is 550 pM. Further, the fraction remaining at 2 h in data set [2] came to 74%. In addition, in data set [3], the “Buffer stability pH 4.5 % purity loss” value was 0.0/0.0 ^ % and the “Buffer stability pH 7.4 % purity loss” value was 0.0/0.0 ^ %. Moreover, in data set [4], the area under the curve AUC(0-t) amounted to 2710 ng·h/mL, the peak concentration (Cmax) was found to be 159 ng/mL, the time of peak concentration (Tmax) was found to be 5 h and the half-life is 5.8 h. In addition, in data set [5], the “Emax (% I)” value is −2 % I and the EC50 is greater than 250000 pM.
